Test results as given in patent US20210215674A1, “COMPOSITIONS AND METHODS FOR SCREENING COMPOUNDS FOR CARDIAC SIDE EFFECTS” (Arizona Board of Regents on Behalf of the University of …, priority 2018, published 2021).

System: hiPSC-CM / fibroblast graft (bioengineered tissue)
Experiment: ECG recording of bioengineered tissue on multi-electrode array with pharmacological perturbations
Assay type: cell-based, human
Conditions: for change of heart rate of the construct: continuous ECG recording, FIG. 8; for change of QT interval / change of R-R interval (heart rate-equivalent): single bioengineered tissue on multi-electrode array vs baseline, FIG. 10
Method: Methods of graft engineering: Human dermal fibroblasts were cultured into a vicryl (polygalctin 910) knitted mesh until the mesh was fully confluent with fibroblasts. Human induced pluripotent stem cell derived cardiomyocytes (hiPSC-CMs) were seeded onto the fibroblasts grafts using centrifugal force (1300 rpms for 5 min). All cell cultures were maintained at […] and 5% CO2 with media changed every 24-48 hrs. Fibroblasts were maintained with 10% FBS in DMEM, hiPSC-CMs were maintained with RPMI+B27. Grafts were either used fresh or after cryopreservation. Fresh grafts were assayed 48 hrs after hiPSC-CM engraftment. Cryopreserved grafts were assayed 2 days post reconstitution. Axion System Methods: […] diameter circular grafts were transferred to the Axion culture well, hiPSC-CM side down and three small 5 mm×1 mm weights were placed on the surface to enhance contact with the electrodes. Cultures were maintained at 37° C. and 5% CO2. Data were obtained at baseline, and then with pharmacological perturbations. NeuroNexus Methods: 1.6 cm diameter circular grafts were placed hiPSC-CM side down on the recording array. Cultures were maintained at 37° C. but no control was available for CO2. […] To enhance contact, the volume of medium in the culture well was reduced from 1.5 ml to 0.25-0.5 ml. Data were obtained at baseline, and then with pharmacological perturbations.

SMILES | change of heart rate of the construct | change of QT interval | change of R-R interval (heart rate-equivalent)
CC(C)(C)NC[C@H](O)COc1nsnc1N1CCOCC1 [Timolol] | decrease | increase | increase
CC(C)NCC(O)c1ccc(O)c(O)c1 (stereo not drawn) [Isoproterenol] | increase | decrease | decrease
